The results in this text go back to ChEMBL document CHEMBL1136561, “Thiophene-based vitronectin receptor antagonists” (Bioorg Med Chem Lett, 2003).

SMILES strings stand for the structures. pIC50: −log10 of the molar value.

Assay [1] has as its target Integrin alpha-V/beta-3 and alpha-IIb/beta 3 (Homo sapiens) (UniProt P05106+P06756+P08514). The experiment in a line: Selectivity ratio for alphaIIb-beta3 over alphaV-beta3 integrins. The format is protein assay.
In assay [2] the target is T1, Integrin alpha-V/beta-3 (Homo sapiens, UniProt P05106+P06756). The experiment in a line: Inhibition of fibrinogen binding to K562 cells expressing integrin alphaV-beta3. The format is cell-based.
For assay [3], the target named is Integrin alpha-IIb/beta-3 (Homo sapiens, UniProt P05106+P08514). The experiment in a line: Inhibition of fibrinogen binding to integrin alphaIIb-beta3. The format is protein-complex assay.
Assay [4] has as its target T1, Integrin alpha-V/beta-3. The assay can be described thus: Inhibition of fibrinogen binding to integrin alphaV-beta3 receptor. The format is protein-complex assay.
For assay [5], the species on record is Gallus gallus. The assay can be described thus: Inhibition of VEGF-mediated angiogenesis in the chick CAM assay expressed as capillary formation at 3 ug/mesh conc. The format is functional.
For another assay, the target named is Integrin alpha-5/beta-1 (Homo sapiens, UniProt P05556+P08648). The assay can be described thus: Inhibition of fibronectin binding to K562 cells expressing integrin alpha5-beta1.
Assay [6] addresses Fibronectin receptor (Integrin alpha-5/beta-1 and alpha-V/beta-3) (Homo sapiens) (UniProt P05106+P05556+P06756+P08648). The assay can be described thus: Selectivity ratio for alpha5-beta1 and alphaV-beta3 integrins. The format is protein-complex assay.
For assay [7], the species on record is Gallus gallus. The assay can be described thus: Inhibition of VEGF-mediated angiogenesis in the chick CAM assay expressed as capillary formation at 33 ug/mesh conc. The format is functional.
Another assay is filed under the species Homo sapiens. The assay can be described thus: Selectivity ratio for alphaV-beta5 over alphaV-beta3 integrins.
For assay [8], the species on record is Gallus gallus. The experiment in a line: Inhibition of VEGF-mediated angiogenesis in the chick CAM assay expressed as capillary formation at 17 ug/mesh conc. The format is functional.
The next assay deals with Integrin alpha-V/beta-5 (Homo sapiens, UniProt P06756+P18084). The experiment in a line: Inhibition of vitronectin binding to HT-29 cells expressing integrin alphaV-beta5. The format is cell-based.

Sequence of Fibronectin receptor (Integrin alpha-5/beta-1 and alpha-V/beta-3) (Homo sapiens) (P05106 whole entry, looked up): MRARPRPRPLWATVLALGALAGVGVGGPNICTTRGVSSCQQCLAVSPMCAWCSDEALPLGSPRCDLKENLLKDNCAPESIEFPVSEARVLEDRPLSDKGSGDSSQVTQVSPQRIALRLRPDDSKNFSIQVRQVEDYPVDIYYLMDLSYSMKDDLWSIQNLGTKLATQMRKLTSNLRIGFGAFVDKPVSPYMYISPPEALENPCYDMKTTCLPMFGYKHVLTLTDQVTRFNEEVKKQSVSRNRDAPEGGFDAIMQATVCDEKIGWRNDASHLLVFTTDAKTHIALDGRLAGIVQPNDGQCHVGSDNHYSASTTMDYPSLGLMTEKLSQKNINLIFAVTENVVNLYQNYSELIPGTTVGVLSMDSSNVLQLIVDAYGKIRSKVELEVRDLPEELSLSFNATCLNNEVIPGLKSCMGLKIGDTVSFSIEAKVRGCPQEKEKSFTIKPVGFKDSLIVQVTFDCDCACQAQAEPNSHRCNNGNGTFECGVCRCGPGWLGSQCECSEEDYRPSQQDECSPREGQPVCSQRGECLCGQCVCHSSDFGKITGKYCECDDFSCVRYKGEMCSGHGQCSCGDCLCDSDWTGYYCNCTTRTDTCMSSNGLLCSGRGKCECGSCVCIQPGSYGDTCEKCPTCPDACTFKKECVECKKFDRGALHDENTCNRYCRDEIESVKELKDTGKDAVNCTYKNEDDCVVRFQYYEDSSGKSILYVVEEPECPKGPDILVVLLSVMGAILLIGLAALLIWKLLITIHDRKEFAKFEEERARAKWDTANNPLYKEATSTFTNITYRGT
Sequence of Fibronectin receptor (Integrin alpha-5/beta-1 and alpha-V/beta-3) (Homo sapiens) (P05556 whole entry, looked up): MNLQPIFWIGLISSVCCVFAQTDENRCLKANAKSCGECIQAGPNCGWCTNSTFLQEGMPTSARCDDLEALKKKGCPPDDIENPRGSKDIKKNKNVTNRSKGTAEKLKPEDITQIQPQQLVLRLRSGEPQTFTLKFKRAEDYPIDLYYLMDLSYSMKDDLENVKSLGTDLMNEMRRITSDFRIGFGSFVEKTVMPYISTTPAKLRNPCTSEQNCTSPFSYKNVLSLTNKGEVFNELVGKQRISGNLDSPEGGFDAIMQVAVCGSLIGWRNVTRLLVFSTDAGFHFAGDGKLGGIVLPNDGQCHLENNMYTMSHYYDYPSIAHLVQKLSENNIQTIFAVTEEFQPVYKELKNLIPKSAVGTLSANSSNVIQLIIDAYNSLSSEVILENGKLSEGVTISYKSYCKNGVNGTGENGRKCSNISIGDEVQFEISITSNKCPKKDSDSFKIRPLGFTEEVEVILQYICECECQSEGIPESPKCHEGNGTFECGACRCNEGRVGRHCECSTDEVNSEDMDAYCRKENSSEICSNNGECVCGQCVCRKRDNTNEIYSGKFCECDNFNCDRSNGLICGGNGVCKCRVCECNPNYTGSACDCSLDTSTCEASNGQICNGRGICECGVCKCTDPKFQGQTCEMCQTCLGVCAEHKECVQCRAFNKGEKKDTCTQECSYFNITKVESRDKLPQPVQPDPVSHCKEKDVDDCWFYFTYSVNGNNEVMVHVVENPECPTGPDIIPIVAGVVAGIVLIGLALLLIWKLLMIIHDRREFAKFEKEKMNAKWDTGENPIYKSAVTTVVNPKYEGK
Sequence of Fibronectin receptor (Integrin alpha-5/beta-1 and alpha-V/beta-3) (Homo sapiens) (P06756 whole entry, looked up): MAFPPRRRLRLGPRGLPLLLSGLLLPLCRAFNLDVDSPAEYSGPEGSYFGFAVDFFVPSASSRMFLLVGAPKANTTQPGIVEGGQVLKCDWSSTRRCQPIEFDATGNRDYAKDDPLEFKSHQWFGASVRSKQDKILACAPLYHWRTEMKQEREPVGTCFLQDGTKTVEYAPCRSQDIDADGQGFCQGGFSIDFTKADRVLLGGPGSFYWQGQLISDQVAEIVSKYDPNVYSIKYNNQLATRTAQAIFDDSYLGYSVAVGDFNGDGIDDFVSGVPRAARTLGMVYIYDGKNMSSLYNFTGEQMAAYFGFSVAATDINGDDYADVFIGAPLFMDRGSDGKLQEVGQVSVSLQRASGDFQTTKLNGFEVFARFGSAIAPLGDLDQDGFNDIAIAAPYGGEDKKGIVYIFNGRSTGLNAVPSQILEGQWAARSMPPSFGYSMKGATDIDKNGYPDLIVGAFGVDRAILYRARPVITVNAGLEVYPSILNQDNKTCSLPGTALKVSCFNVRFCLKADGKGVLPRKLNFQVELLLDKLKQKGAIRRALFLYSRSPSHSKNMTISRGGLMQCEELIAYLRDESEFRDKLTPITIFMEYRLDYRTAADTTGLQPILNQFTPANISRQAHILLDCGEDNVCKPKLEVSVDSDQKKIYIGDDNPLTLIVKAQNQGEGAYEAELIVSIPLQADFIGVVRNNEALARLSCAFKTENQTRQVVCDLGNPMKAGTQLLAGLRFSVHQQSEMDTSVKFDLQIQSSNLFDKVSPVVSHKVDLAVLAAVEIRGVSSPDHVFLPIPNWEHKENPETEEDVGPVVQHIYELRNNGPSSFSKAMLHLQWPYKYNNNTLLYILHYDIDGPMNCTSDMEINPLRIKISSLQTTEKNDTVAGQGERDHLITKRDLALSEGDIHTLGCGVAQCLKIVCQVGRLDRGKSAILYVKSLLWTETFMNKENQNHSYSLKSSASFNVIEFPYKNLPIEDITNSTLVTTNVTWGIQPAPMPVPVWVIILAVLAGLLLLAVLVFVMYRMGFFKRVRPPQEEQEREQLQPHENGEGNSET
Sequence of Fibronectin receptor (Integrin alpha-5/beta-1 and alpha-V/beta-3) (Homo sapiens) (P08648 whole entry, looked up): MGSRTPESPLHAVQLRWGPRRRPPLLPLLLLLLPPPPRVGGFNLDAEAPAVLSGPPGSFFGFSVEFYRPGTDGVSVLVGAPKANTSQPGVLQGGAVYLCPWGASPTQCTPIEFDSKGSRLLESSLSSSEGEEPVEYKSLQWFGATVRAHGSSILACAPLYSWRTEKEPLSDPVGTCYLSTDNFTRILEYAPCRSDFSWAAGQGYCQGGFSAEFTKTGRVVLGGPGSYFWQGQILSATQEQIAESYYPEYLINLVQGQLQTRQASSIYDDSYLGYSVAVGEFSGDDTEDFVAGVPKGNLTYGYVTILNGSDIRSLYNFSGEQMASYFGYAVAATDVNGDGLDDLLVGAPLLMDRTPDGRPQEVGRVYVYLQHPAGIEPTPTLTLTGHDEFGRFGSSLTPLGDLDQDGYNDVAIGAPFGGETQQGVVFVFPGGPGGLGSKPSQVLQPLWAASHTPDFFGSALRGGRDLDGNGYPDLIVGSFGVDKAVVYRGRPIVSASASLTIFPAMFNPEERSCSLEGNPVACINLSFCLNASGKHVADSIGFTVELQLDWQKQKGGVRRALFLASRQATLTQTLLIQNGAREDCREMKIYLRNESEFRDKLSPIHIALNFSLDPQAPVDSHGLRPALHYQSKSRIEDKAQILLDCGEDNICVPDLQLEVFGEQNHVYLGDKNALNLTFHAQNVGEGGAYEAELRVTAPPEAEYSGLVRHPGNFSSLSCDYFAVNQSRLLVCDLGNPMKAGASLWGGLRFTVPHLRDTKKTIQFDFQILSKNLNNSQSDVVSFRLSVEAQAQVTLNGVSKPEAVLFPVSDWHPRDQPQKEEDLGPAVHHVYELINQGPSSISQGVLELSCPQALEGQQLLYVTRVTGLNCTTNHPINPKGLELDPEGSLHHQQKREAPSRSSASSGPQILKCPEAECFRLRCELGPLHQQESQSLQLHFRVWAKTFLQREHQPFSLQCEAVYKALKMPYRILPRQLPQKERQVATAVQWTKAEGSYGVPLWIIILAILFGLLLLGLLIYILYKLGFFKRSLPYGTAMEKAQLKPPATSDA

Usually pIC50 stands for the IC50 on a negative log10 scale, so that one unit is a factor of ten. High values mean a small IC50, low ones a large IC50. Turning to `N=C(N)Nc1ccccc1-c1ccc(C(=O)NC[C@H](NS(=O)(=O)c2ccccc2)C(=O)O)s1`, in assay [1], the Ratio was under 0.1. The figures for the pIC50 (at Integrin alpha-V/beta-3 [2]; in [3]; on Integrin alpha-V/beta-3 [4]) were 5.27, 9.60 and 5.26, respectively.
As to `N=C(N)Nc1ccc(-c2ccc(C(=O)NC[C@H](NS(=O)(=O)c3ccccc3)C(=O)O)s2)cc1`, the Ratio in assay [1] is under 0.1. In addition, the pIC50 at Integrin alpha-V/beta-3 [2] is 5.42; in assay [3], 11.89; at Integrin alpha-V/beta-3 [4], 7.15.
What is called Inhibition is the relative decrease from the control value, in per cent. A higher Inhibition goes with a response far below the control. On to `N=C(N)Nc1cccc(-c2ccc(C(=O)NC[C@H](NS(=O)(=O)c3ccccc3)C(=O)O)s2)c1.O=C(O)C(F)(F)F`, for which the Ratio in assay [1] was 3; in [6] it was 500; in the assay listed under Homo sapiens, 33. The Inhibition in the assay listed under Gallus gallus [5] is recorded as 29%; in the assay listed under Gallus gallus [7], 98%; in the assay filed under Gallus gallus [8], 66%. Also, the pIC50 at Integrin alpha-5/beta-1 is 7.02; on Integrin alpha-V/beta-3 [2], 9.72; in [3] it was 9.23; at Integrin alpha-V/beta-3 [4] it was 9.00.
For the molecule `Cc1cc(C)c(S(=O)(=O)N[C@@H](CNC(=O)c2ccc(-c3cccc(CN=C(N)N)c3)s2)C(=O)O)c(C)c1.O=C(O)C(F)(F)F`, the Ratio in [1] was under 0.1; in assay [6], 6; in the assay filed under Homo sapiens it was 1. The Inhibition in the assay filed under Gallus gallus [5] is listed as 65%; in the assay listed under Gallus gallus [7], 95%; in the assay filed under Gallus gallus [8] it was 91%. In addition, the pIC50 at Integrin alpha-V/beta-3 [2] is 7.96; in assay [3] it was 9.80; at Integrin alpha-V/beta-3 [4], 8.47.
Regarding `N=C(N)NCc1ccccc1-c1ccc(C(=O)NC[C@H](NS(=O)(=O)c2ccccc2)C(=O)O)s1`, in assay [1], the Ratio is under 0.1. For the same molecule, the figures for the pIC50 (on Integrin alpha-V/beta-3 [2]; in assay [3]; on Integrin alpha-V/beta-3 [4]) were 7.68, 11.24 and 10.40, respectively.
With `N=C(N)NCc1ccc(-c2ccc(C(=O)NC[C@H](NS(=O)(=O)c3ccccc3)C(=O)O)s2)cc1`, the Ratio in assay [1] was under 0.1. In addition, the pIC50 on Integrin alpha-V/beta-3 [2] was 6.14; in [3] it was 8.21; on Integrin alpha-V/beta-3 [4] it was 8.68.
`N=C(N)NCc1cccc(-c2ccc(C(=O)NC[C@H](NS(=O)(=O)c3ccccc3)C(=O)O)s2)c1.O=C(O)C(F)(F)F`: the Ratio was under 0.5 in assay [1], 864 in assay [6] and 97 in the assay filed under Homo sapiens. Further, the figures for the Inhibition in the assay filed under Gallus gallus [5], in the assay listed under Gallus gallus [7] and in the assay listed under Gallus gallus [8] were 29%, 57% and 42%, respectively. Further, the pIC50 on Integrin alpha-V/beta-3 [2] was 9.13; in assay [3], 9.47; on Integrin alpha-V/beta-3 [4], 8.66.
With `Cc1cc(C)c(S(=O)(=O)N[C@@H](CNC(=O)c2ccc(-c3cccc(NC(=N)N)c3)s2)C(=O)O)c(C)c1`, the Ratio in [1] was determined as 300; in assay [6], 28300; in the assay listed under Homo sapiens, 2720. In addition, the pIC50 at Integrin alpha-V/beta-5 is 8.60; at Integrin alpha-5/beta-1, 7.59; on Integrin alpha-V/beta-3 [2], 12.04; in assay [3], 9.51; at Integrin alpha-V/beta-3 [4] it was 8.85.
